Measurements from PubChem BioAssay (NCI).
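Method: 48-hour compound exposure of cells in 96-well plates, five concentrations, linear interpolation of endpoints. The concentration for 50% growth inhibition is given as GI50. At the TGI there is no net growth.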

Tests used:
Assay in all cases: NCI-60 cell line screen, 48 h
[1] = tested on: DU-145 prostate
[2] = tested on: U251 CNS
[3] = tested on: OVCAR-5 ovarian
[4] = tested on: CAKI-1 renal
[5] = tested on: OVCAR-8 ovarian
[6] = tested on: HCT-15 colon
[7] = tested on: A498 renal
[8] = tested on: SF-539 CNS
[9] = tested on: SF-268 CNS
[10] = tested on: UACC-257 melanoma
[11] = tested on: HL-60(TB) leukemia
[12] = tested on: UACC-62 melanoma
[13] = tested on: SK-OV-3 ovarian
[14] = tested on: TK-10 renal
[15] = tested on: SK-MEL-5 melanoma
[16] = tested on: HCT-116 colon
[17] = tested on: COLO 205 colon
[18] = tested on: KM12 colon
[19] = tested on: SW-620 colon
[20] = tested on: MOLT-4 leukemia
[21] = tested on: HCC-2998 colon
[22] = tested on: UO-31 renal
[23] = tested on: NCI-H226 lung
[24] = tested on: PC-3 prostate
[25] = tested on: A549 NSCLC
[26] = tested on: RPMI-8226 leukemia
[27] = tested on: HT29 colon
[28] = tested on: MDA-MB-435
[29] = tested on: NCI-H522 lung
[30] = tested on: BT-549 breast
[31] = tested on: LOX IMVI melanoma
[32] = tested on: MCF7 breast
[33] = tested on: HS 578T breast
[34] = tested on: SK-MEL-28 melanoma
[35] = tested on: RXF 393 renal
[36] = tested on: HOP-92 NSCLC
[37] = tested on: IGROV1 ovarian
[38] = tested on: SNB-19 CNS
[39] = tested on: ACHN renal
[40] = tested on: SK-MEL-2 melanoma
[41] = tested on: SNB-75 CNS
[42] = tested on: NCI-H23 lung
[43] = tested on: NCI/ADR-RES ovarian
[44] = tested on: M14 melanoma
[45] = tested on: K-562 leukemia
[46] = tested on: SF-295 CNS
[47] = tested on: 786-0 renal
[48] = tested on: OVCAR-4 ovarian
[49] = tested on: MALME-3M melanoma
[50] = tested on: CCRF-CEM leukemia
[51] = tested on: HOP-62 NSCLC
[52] = tested on: OVCAR-3 ovarian
[53] = tested on: NCI-H460 lung
[54] = tested on: SR leukemia
[55] = tested on: SN12C renal

O=C(CCCN1CCOCC1)Nc1ccc(Cn2nnc3c2C(=O)c2nnn(Cc4ccc(NC(=O)CCCN5CCOCC5)cc4)c2C3=O)cc1
GI50 [1]: 7.3 µM | TGI [1]: > 100 µM | GI50 [2]: 1.95 µM | TGI [2]: 3.74 µM | GI50 [3]: > 100 µM | TGI [3]: > 100 µM | GI50 [4]: > 100 µM | TGI [4]: > 100 µM | GI50 [5]: 3.78 µM | TGI [5]: > 100 µM | GI50 [6]: > 100 µM | TGI [6]: > 100 µM | GI50 [7]: > 100 µM | TGI [7]: > 100 µM | GI50 [8]: 2.17 µM | TGI [8]: 4.71 µM | GI50 [9]: 3.21 µM | TGI [9]: 12.1 µM | GI50 [10]: 1.7 µM | TGI [10]: 3.23 µM | GI50 [11]: 1.51 µM | TGI [11]: 4.91 µM | GI50 [12]: 2.06 µM | TGI [12]: 5.86 µM | GI50 [13]: > 100 µM | TGI [13]: > 100 µM | GI50 [14]: > 100 µM | TGI [14]: > 100 µM | GI50 [15]: 1.52 µM | TGI [15]: 3.55 µM | GI50 [16]: 3 µM | TGI [16]: 11.3 µM | GI50 [17]: 0.982 µM | TGI [17]: 2.43 µM | GI50 [18]: 6.99 µM | TGI [18]: > 100 µM | GI50 [19]: 2.85 µM | TGI [19]: > 100 µM | GI50 [20]: 1.61 µM | TGI [20]: 4.85 µM | GI50 [21]: 2.62 µM | TGI [21]: 5.79 µM | GI50 [22]: > 100 µM | TGI [22]: > 100 µM | GI50 [23]: > 100 µM | TGI [23]: > 100 µM | GI50 [24]: 3.67 µM | TGI [24]: > 100 µM | GI50 [25]: > 100 µM | TGI [25]: > 100 µM | GI50 [26]: 2.18 µM | TGI [26]: 7.48 µM | GI50 [27]: 3.31 µM | TGI [27]: 8.9 µM | GI50 [28]: 1.65 µM | TGI [28]: 3.08 µM | GI50 [29]: 1.38 µM | TGI [29]: 3.59 µM | GI50 [30]: 4.68 µM | TGI [30]: 18.4 µM | GI50 [31]: 2.01 µM | TGI [31]: 6.3 µM | GI50 [32]: 1.03 µM | TGI [32]: 2.77 µM | GI50 [33]: 2.79 µM | TGI [33]: 7.76 µM | GI50 [34]: 3.93 µM | TGI [34]: > 100 µM | GI50 [35]: 4.33 µM | TGI [35]: 38.9 µM | GI50 [36]: 2.54 µM | TGI [36]: 5.04 µM | GI50 [37]: 1.95 µM | TGI [37]: 4.62 µM | GI50 [38]: 1.84 µM | TGI [38]: 3.59 µM | GI50 [39]: > 100 µM | TGI [39]: > 100 µM | GI50 [40]: 2.04 µM | TGI [40]: 4.15 µM | GI50 [41]: 1.83 µM | TGI [41]: 3.24 µM | GI50 [42]: 2.33 µM | TGI [42]: 5.63 µM | GI50 [43]: > 100 µM | TGI [43]: > 100 µM | GI50 [44]: 4.59 µM | TGI [44]: 43.6 µM | GI50 [45]: 4.28 µM | TGI [45]: > 100 µM | GI50 [46]: > 100 µM | TGI [46]: > 100 µM | GI50 [47]: > 100 µM | TGI [47]: > 100 µM | GI50 [48]: 1.25 µM | TGI [48]: 2.51 µM | GI50 [49]: 1.21 µM | TGI [49]: 2.79 µM | GI50 [50]: 1.81 µM | TGI [50]: 6.32 µM | GI50 [51]: > 100 µM | TGI [51]: > 100 µM | GI50 [52]: 0.348 µM | TGI [52]: 1.54 µM | GI50 [53]: 2.07 µM | TGI [53]: > 100 µM | GI50 [54]: 2.05 µM | TGI [54]: 7.86 µM | GI50 [55]: 1.79 µM | TGI [55]: 3.67 µM

COc1ccc2nc3cc(Cl)ccc3c(N3CCN(c4ccnc(N5CCOCC5)n4)CC3)c2c1
GI50 [1]: 17.9 µM | TGI [1]: > 100 µM | GI50 [2]: > 100 µM | TGI [2]: > 100 µM | GI50 [3]: 7.58 µM | TGI [3]: > 100 µM | GI50 [4]: > 100 µM | TGI [4]: > 100 µM | GI50 [5]: 43.5 µM | TGI [5]: > 100 µM | GI50 [6]: 3.28 µM | TGI [6]: > 100 µM | GI50 [7]: 27.8 µM | TGI [7]: > 100 µM | GI50 [8]: > 100 µM | TGI [8]: > 100 µM | GI50 [9]: 9.74 µM | TGI [9]: > 100 µM | GI50 [10]: > 100 µM | TGI [10]: > 100 µM | GI50 [11]: 8.12 µM | TGI [11]: > 100 µM | GI50 [12]: > 100 µM | TGI [12]: > 100 µM | GI50 [13]: > 100 µM | TGI [13]: > 100 µM | GI50 [14]: 42.5 µM | TGI [14]: > 100 µM | GI50 [15]: > 100 µM | TGI [15]: > 100 µM | GI50 [16]: 6.29 µM | TGI [16]: > 100 µM | GI50 [17]: 6.66 µM | TGI [17]: > 100 µM | GI50 [18]: 19.3 µM | TGI [18]: > 100 µM | GI50 [19]: 4.71 µM | TGI [19]: > 100 µM | GI50 [20]: 6.24 µM | TGI [20]: > 100 µM | GI50 [21]: 3.86 µM | TGI [21]: 42.4 µM | GI50 [22]: > 100 µM | TGI [22]: > 100 µM | GI50 [23]: > 100 µM | TGI [23]: > 100 µM | GI50 [24]: 98.1 µM | TGI [24]: > 100 µM | GI50 [25]: > 100 µM | TGI [25]: > 100 µM | GI50 [26]: 2.92 µM | TGI [26]: 10.6 µM | GI50 [27]: 2.9 µM | TGI [27]: 16.7 µM | GI50 [28]: 7.15 µM | TGI [28]: > 100 µM | GI50 [29]: 1.81 µM | TGI [29]: 5.09 µM | GI50 [30]: > 100 µM | TGI [30]: > 100 µM | GI50 [32]: 1.89 µM | TGI [32]: 4.9 µM | GI50 [33]: 12.3 µM | TGI [33]: > 100 µM | GI50 [34]: 58.4 µM | TGI [34]: > 100 µM | GI50 [35]: 2.68 µM | TGI [35]: 16.1 µM | GI50 [36]: 11.5 µM | TGI [36]: > 100 µM | GI50 [37]: > 100 µM | TGI [37]: > 100 µM | GI50 [38]: > 100 µM | TGI [38]: > 100 µM | GI50 [39]: 9.64 µM | TGI [39]: > 100 µM | GI50 [40]: 53.3 µM | TGI [40]: > 100 µM | GI50 [41]: 10.6 µM | TGI [41]: 65.3 µM | GI50 [42]: 8.61 µM | TGI [42]: > 100 µM | GI50 [43]: 50.8 µM | TGI [43]: > 100 µM | GI50 [44]: > 100 µM | TGI [44]: > 100 µM | GI50 [45]: 2.91 µM | TGI [45]: > 100 µM | GI50 [46]: > 100 µM | TGI [46]: > 100 µM | GI50 [47]: 4.23 µM | TGI [47]: 34.3 µM | GI50 [49]: > 100 µM | TGI [49]: > 100 µM | GI50 [50]: 2.49 µM | TGI [50]: > 100 µM | GI50 [51]: 63.1 µM | TGI [51]: > 100 µM | GI50 [52]: 4.14 µM | TGI [52]: 57.3 µM | GI50 [53]: > 100 µM | TGI [53]: > 100 µM | GI50 [54]: 3.29 µM | TGI [54]: > 100 µM | GI50 [55]: > 100 µM | TGI [55]: > 100 µM
